Values after ≈ are worked out from the molar mass of the structure shown.
Experiments:
[1] = Inhibition of Aquifex aeolicus LpxC
Klebsiella pneumoniae [2] = experiment: Antimicrobial activity against wild type Klebsiella pneumoniae by broth dilution assay; assay type: functional
Klebsiella aerogenes = experiment: Antimicrobial activity against wild type Enterobacter aerogenes by broth dilution assay; assay type: functional
Proteus vulgaris = experiment: Antimicrobial activity against wild type Proteus vulgaris by broth dilution assay; assay type: functional
[3] = target: T1, UDP-3-O-acyl-N-acetylglucosamine deacetylase (Escherichia coli K-12, UniProt P0A725); experiment: Inhibition of Escherichia coli LpxC
T1 sequence (P0A725 whole entry): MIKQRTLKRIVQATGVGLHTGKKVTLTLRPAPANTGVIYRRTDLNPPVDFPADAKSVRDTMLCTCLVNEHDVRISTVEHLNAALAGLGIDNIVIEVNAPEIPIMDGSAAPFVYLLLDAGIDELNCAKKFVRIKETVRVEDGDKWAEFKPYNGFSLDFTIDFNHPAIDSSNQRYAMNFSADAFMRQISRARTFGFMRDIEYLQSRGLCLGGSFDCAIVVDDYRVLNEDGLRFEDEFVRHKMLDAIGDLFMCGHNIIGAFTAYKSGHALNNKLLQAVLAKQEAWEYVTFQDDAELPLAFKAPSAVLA

Escherichia coli [4] = experiment: Antimicrobial activity against Escherichia coli HS294 by broth dilution assay; assay type: functional
Acinetobacter baumannii = experiment: Antimicrobial activity against wild type Acinetobacter baumannii by broth dilution assay; assay type: functional
Klebsiella pneumoniae [5] = experiment: Antimicrobial activity against ESBL producing Klebsiella pneumoniae by broth dilution assay; assay type: functional
Escherichia coli [6] = experiment: Antimicrobial activity against wild type Escherichia coli by broth dilution assay; assay type: functional
Escherichia coli [7] = experiment: Antimicrobial activity against Escherichia coli ATCC 25922 by broth dilution assay; assay type: functional
[8] = tested on: Stenotrophomonas maltophilia; experiment: Antimicrobial activity against wild type Stenotrophomonas maltophilia by broth dilution assay; assay type: functional
Escherichia coli [9] = experiment: Antimicrobial activity against multidrug-resistant Escherichia coli by broth dilution assay; assay type: functional
Pseudomonas aeruginosa [10] = experiment: Antimicrobial activity against wild type Pseudomonas aeruginosa by broth dilution assay; assay type: functional
Escherichia coli [11] = experiment: Antimicrobial activity against ESBL producing Escherichia coli by broth dilution assay; assay type: functional
Pseudomonas aeruginosa [12] = experiment: Antimicrobial activity against multidrug-resistant Pseudomonas aeruginosa by broth dilution assay; assay type: functional
Serratia marcescens = experiment: Antimicrobial activity against wild type Serratia marcescens by broth dilution assay; assay type: functional
[13] = tested on: Acinetobacter calcoaceticus; experiment: Antimicrobial activity against wild type Acinetobacter calcoaceticus by broth dilution assay; assay type: functional
Enterobacter cloacae = experiment: Antimicrobial activity against ESBL producing Enterobacter cloacae by broth dilution assay; assay type: functional

Kd [1]	SMILES	MIC (Klebsiella pneumoniae [2])	MIC (Klebsiella aerogenes)	MIC (Proteus vulgaris)	IC50 [3]	MIC (Escherichia coli [4])	MIC (Acinetobacter baumannii)	MIC (Klebsiella pneumoniae [5])	MIC (Escherichia coli [6])	MIC (Escherichia coli [7])	MIC [8]	MIC (Escherichia coli [9])	MIC (Pseudomonas aeruginosa [10])	MIC (Escherichia coli [11])	MIC (Pseudomonas aeruginosa [12])	MIC (Serratia marcescens)	MIC [13]	MIC (Enterobacter cloacae)
2 µM	CCCCCCCOc1cccc(C(=O)O)c1																	
	CC(C)(O)[C@@H](NC(=O)N1CCN(c2ccc(C#Cc3ccccc3)cc2)CC1)C(=O)NO	12.5 mg/L (≈ 28.6 µM)	12.5 mg/L (≈ 28.6 µM)	3.13 mg/L (≈ 7.17 µM)	0.0003 µM	0.1 mg/L (≈ 0.229 µM)	> 50 mg/L	6.25 mg/L (≈ 14.3 µM)	0.8 mg/L (≈ 1.83 µM)	0.8 mg/L (≈ 1.83 µM)	25 mg/L (≈ 57.3 µM)	1.56 mg/L (≈ 3.57 µM)	> 50 mg/L	1.56 mg/L (≈ 3.57 µM)	6.25 mg/L (≈ 14.3 µM)	6.25 mg/L (≈ 14.3 µM)	25 mg/L (≈ 57.3 µM)	6.25 mg/L (≈ 14.3 µM)
